Assay results from the NIST ThermoML archive (doi:10.1016/j.jct.2014.01.016).

Details: 298.15 K; Liquid; Gas chromatography

vapor or sublimation pressure | SMILES
0.00097 kPa | CCCCCC1CCC(=O)O1 (stereo unspecified) [2(3H)-furanone, dihydro-5-pentyl-]
0.00027 kPa | CCCCCC1CCCC(=O)O1 (stereo unspecified) [2H-pyran-2-one, tetrahydro-6-pentyl-]
0.00221 kPa | CCCC1CCCC(=O)O1 (stereo unspecified) [2H-pyran-2-one, tetrahydro-6-propyl-]
0.00033 kPa | CCCCCCC1CCC(=O)O1 (stereo unspecified) [γ-decalactone]
4e-05 kPa | CCCCCCCCC1CCC(=O)O1 (stereo unspecified) [γ-dodecanolactone]
0.00278 kPa | CCCCC1CCC(=O)O1 (stereo unspecified) [γ-octanolactone]
0.00012 kPa | CCCCCCCC1CCC(=O)O1 (stereo unspecified) [γ-undecanolactone]
3e-05 kPa | CCCCCCCC1CCCC(=O)O1 (stereo unspecified) [δ-dodecanolactone]
0.00076 kPa | CCCCC1CCCC(=O)O1 (stereo unspecified) [δ-nonanolactone]
9e-05 kPa | CCCCCCC1CCCC(=O)O1 (stereo unspecified) [δ-undecanolactone]

SMILES | vapor or sublimation pressure
CCC1CCC(=O)O1 (stereo unspecified) [2(3H)-furanone, 5-ethyldihydro-] | 0.0225 kPa
